Measurements published in the CheMixHub ionic liquid set.
± gives the uncertainty stated by the source.

Assay: xn = mol fraction of the nth substance listed
Conditions: for electrical conductivity: x2 = 0

C[C@H](N)C(=O)O + CCCCCCCCCCCC[N+](C)(C)Cc1ccccc1.[Cl-] + O
electrical conductivity [S/m], 101 kPa
Conditions | 293.15 K | 298.15 K | 303.15 K | 308.15 K | 313.15 K
x1 = 0.000902 | 0.0002 ± 1.2e-05 | 0.000236 ± 1.4e-05 | 0.000271 ± 1.6e-05 | 0.00031 ± 1.9e-05 | 0.000356 ± 2.2e-05
x1 = 0.001774 | 0.000272 ± 1.7e-05 | 0.000323 ± 2e-05 | 0.000378 ± 2.3e-05 | 0.000442 ± 2.7e-05 | 0.000511 ± 3.1e-05

NCC(=O)NCC(=O)O + CCCCCCCCCCCC[N+](C)(C)Cc1ccccc1.[Cl-] + O
101 kPa, x1 = 0.0008948
Conditions | electrical conductivity [S/m]
293.15 K | 0.00137 ± 8.4e-05
298.15 K | 0.00165 ± 0.0001
303.15 K | 0.00198 ± 0.00012
308.15 K | 0.00239 ± 0.00015
313.15 K | 0.00284 ± 0.00017

CC(C)[C@H]1CC[C@H](C)C[C@@H]1O + CCCCCCCC[N+](CCCCCCCC)(CCCCCCCC)CCCCCCCC.[Br-] + [Cl-].[Cl-].[Co+2]
296.1 K, 101.3 kPa
Conditions | viscosity [mPa·s]
x2 = 0.2857, x3 = 0.1429 | 11900 ± 4200
x2 = 0.4, x3 = 0.2 | 22000 ± 10000
x2 = 0.4286, x3 = 0.1429 | 17800 ± 7500

CCCCCC[n+]1ccn(C)c1.c1nnn[n-]1 + CCCCCCCC[P+](CC)(CC)CC.O=S(=O)([N-]S(=O)(=O)C(F)(F)F)C(F)(F)F
100 kPa
Conditions | viscosity [mPa·s]
278.15 K, x2 = 0.301 | 990 ± 130
283.15 K, x2 = 0.597 | 409 ± 52
283.15 K, x2 = 0.697 | 347 ± 44
288.15 K, x2 = 0.4 | 414 ± 53
298.15 K, x2 = 0.597 | 156 ± 19
303.15 K, x2 = 0.4 | 156 ± 19
303.15 K, x2 = 0.5 | 129 ± 16
303.15 K, x2 = 0.899 | 90 ± 11
308.15 K, x2 = 0.5 | 100 ± 12
308.15 K, x2 = 0.597 | 93 ± 11
308.15 K, x2 = 0.697 | 82 ± 10
313.15 K, x2 = 0.697 | 66 ± 8
318.15 K, x2 = 0.301 | 77 ± 9
318.15 K, x2 = 0.4 | 74 ± 9
318.15 K, x2 = 0.597 | 61 ± 7
323.15 K, x2 = 0.1 | 86 ± 11
323.15 K, x2 = 0.5 | 52 ± 6

O + CCCCCCCC[n+]1ccc(C)cc1.[Br-]
100 kPa, frequency 0.003 MHz
Conditions | electrical conductivity [S/m]
288.15 K | 0.0001
308.15 K | 0.00022

CC1COC(=O)O1 (stereo not drawn) + CCCCCCCCn1cc[n+](C)c1.F[B-](F)(F)F
Conditions | viscosity [mPa·s]
323.15 K, 99.7 kPa, x1 = 1 | 1.77 ± 0.25
